From patent US11197873B2, “Azolium salts for treatment of non-muscle invasive bladder cancer” (The University of Akron, priority 2019, dated 2021)

Tests used:
Format in all cases: cell-based, human
[1] = tested on: RT4 cell line; assay: Relative survival at varying concentration and exposure time, 24 h recovery; conditions: 5 min exposure time
Experimental: (§1) FIG. 4 provides the relative survival of RT4 cells in part A and RT112 cells in part B that were treated with varying concentrations of III for different exposure times followed by a 24 h recovery.
(§2) Select bladder cancer cell lines were seeded at 10,000 cells/well in black-walled 96 well plates and incubated for 24 h. Cells were treated with compound in their respective media (as recommended by ATCC) at concentrations of 500 to 7.8 μM dissolved in two-fold dilution increments or vehicle for 1 h, followed by replacement of treatment media with normal growth media. After 24 h, plates with cells were incubated at room temperature for 30 min, followed by the addition of 20 μL of CellTiter-Glo® luminescent cell viability assay reagent (Promega) and mixing. After 2 min of incubation at room temperature, luminescence for each plate was measured using IVIS. Relative survival for each treatment group was calculated using vehicle control. All treatments were performed in quadruplicate.

[2] = tested on: bladder cancer cell lines; assay: CellTiter-Glo assay, growth inhibition at 1 h exposure
Experimental: as §2

[3] = tested on: RT112 cell line; assay: Relative survival at varying concentration and exposure time, 24 h recovery; conditions: 5 min exposure time
Experimental: as §1
as §2, with “Cells were treated with compound in their respective media (as recommended by ATCC) at concentrations of 500 to 7.8 μM dissolved in two-fold dilution increments or vehicle for 1 h, followed by replacement of treatment media with normal growth media.” left out

CN1/C(=C/C=C/c2n(Cc3ccc4ccccc4c3)c(Cl)c(Cl)[n+]2Cc2ccc3ccccc3c2)Oc2ccccc21.[Cl-] [III, 4,5-dichloro-2-((1E,3Z)-3-(3-methylbenzoxazol-2(3H)-ylidene)prop-1-en-1-yl)-1,3-bis(naphthalen-2-ylmethyl)-1H-imidazolium chloride]
concentration that inhibits cell survival [1]: 10 µM
GI50 compared with both triphenylphosphonium compounds [2]: extremely lower GI50 concentrations
concentration that inhibits cell survival [3]: 40 µM
